According to US6605630B1, “Antibiotic oxazolidinone derivatives” (Syngenta Limited, priority 1997, dated 2003):

Tests used:
[1] = tested on: Staphylococcus aureus Novb. Res.
Experimental: (§1) The activity is described in terms of the minimum inhibitory concentration (MIC) determined by the agar-dilution technique with an inoculum size of 10^4 CFU/spot.
(§2) Staphylococci were tested on agar, using an inoculum of 10^4 CFU/spot and an incubation temperature of 37° C. for 24 hours-standard test conditions for the expression of methicillin resistance.

[2] = tested on: Staphylococcus aureus MRQR
Experimental: as §1, §2

[3] = tested on: Staphylococcus aureus Oxford
Experimental: as §1, §2

[4] = tested on: Coagulase Negative Staphylococci MR
Experimental: as §1, §2

[5] = tested on: Coagulase Negative Staphylococci MS
Experimental: as §1, §2

Bacillus subtilis = tested on: Bacillus subtilis
Source text: as §1

Enterococcus faecalis = conditions: agar with 5% defibrinated horse blood, 10^4 CFU/spot, 37° C., 5% carbon dioxide, 48 hours
Experimental: as §1
(§3) Streptococci and enterococci were tested on agar supplemented with 5% defibrinated horse blood, an inoculum of 10^4 CFU/spot and an incubation temperature of 37° C. in an atmosphere of 5% carbon dioxide for 48 hours-blood is required for the growth of some of the test organisms.

[6] = tested on: Streptococcus pyogenes C203; conditions: agar with 5% defibrinated horse blood, 10^4 CFU/spot, 37° C., 5% carbon dioxide, 48 hours
Experimental: as §1, §3

Substance: N-((5S)-3-(4-((7aS)[3H,5H]-3-oxo-1,7a-Dihydropyrrolol[1,2c]oxazol-6-yl)phenyl)-2-oxooxazolidin-5-ylmethyl)acetamide [Example 44]
- MIC [1]: 0.50 µg/mL
- MIC [2]: 2.00 µg/mL
- MIC [3]: 0.25 µg/mL
- MIC [4]: 0.50 µg/mL
- MIC [5]: 0.13 µg/mL
- MIC (Bacillus subtilis): 0.50 µg/mL
- MIC (Enterococcus faecalis): 0.50 µg/mL
- MIC [6]: 0.13 µg/mL
